Measured values published in paper PMC10541456, “A phase I, single‐center, open‐label study to investigate the absorption, distribution, metabolism and excretion of encorafenib following a single oral dose of 100 mg [ ^14C] encorafenib in healthy male subjects” (Pharmacology Research & Perspectives, 2023).

Assay: Metabolite profiles in excreta (urine, feces)
Format: in vivo, human
Method: A pool of equal percent volume of urine (0–48 h) was prepared for each subject. An aliquot (1.5 mL) of the pooled sample was concentrated ~7‐fold by reducing the volume under nitrogen and then combined with 50 μL methanol:water:acetic acid (50:50:0.1; v/v) followed by centrifugation at 3500 rpm (~1000 × g) for 10 min. The aliquot was then injected onto the UPLC system with off‐line radioactivity detection.
A pool of approximately equal percent by weight of feces (from 0–96 h or 0–120 h) was prepared for each subject. Feces samples were extracted two times with 2 equivalent volumes of acetonitrile: each time with 10 min of vortexing, 10 min of sonication, and centrifugation at 3500 rpm (~1000 × g) for 10 min. An aliquot of the combined supernatant was concentrated approximately 5‐fold by evaporating to dryness under nitrogen and reconstituting in methanol:water:acetic acid (50:50:0.1, v/v) 45 μL of the concentrated, reconstituted samples was injected onto the UPLC system with off‐line radioactivity detection.
Characterization and quantification of the metabolites of encorafenib in select human plasma and excreta samples were performed by the Department of DMPK (Drug Metabolism and Pharmacokinetics) at the Novartis Institutes for Biomedical Research (East Hanover, NJ, USA) using liquid chromatography (LC) coupled to radioactivity detectors and mass spectrometers (MS).
The analytical system consisted of a Waters ACQUITY UPLC system (Waters), equipped with a Phenomenex Luna PFP column (3 μm, 4.6 × 150 mm) (Phenomenex) and a guard column of the same phase, both maintained at a temperature of 30°C. The mobile phases consisted of 10 mM ammonium acetate containing 0.1% formic acid (v/v) (solvent A) and CH3CN (solvent B). The total run time was 80 min. A linear gradient elution program was used with a flow rate of 1 mL/min as described in Table 1.
The UPLC effluent was split 4:1, with […] of the total flow introduced to the mass spectrometer for mass spectral analysis and the remaining flow used for radioactivity detection.
For off‐line radioactivity detection, the eluant was collected into 96‐well Lumaplate (Packard Instrument Co) microplates using a Collect Pal fraction collector (Leap Technologies) with a collection time of 10 seconds per well. The LumaPlates were sealed after drying and counted for 10–50 min per well on a Packard Topcount microplate scintillation counter. The structural characterization of metabolites was carried out using the above UPLC profiling method coupled to a two‐channel Z‐spray (LockSprayTM) time‐of‐flight mass spectrometer (Synapt MS). Leucine enkephalin was used as the mass reference standard for exact mass measurements and was delivered via the second spray channel at a flow rate of 5 μL/minute. […]
All radioactivity data were transferred to Laura software (version 4.2.2.24, Lab Logic Ltd, UK) to generate and integrate radio‐chromatograms. Radioactive peaks for quantitative analysis were manually selected from the plots. The radioactivity in the region encompassing the beginning and end of the peak was summed. All further calculations were based on radioactivity.
The percent of radioactivity (%RA) in a particular peak, Z, was calculated as follows in Equation (1): (1) %RAinZ=DPMin PeakZ/totalDPMinallintegrated peaksx100
The concentration or amount of each component was calculated as % RA (expressed as a fraction) multiplied by the total concentration of radioactivity in plasma, or the percent of dose in the excreta.

## COC(=O)N[C@@H](C)CNc1nccc(-c2cn(C(C)C)nc2-c2cc(Cl)cc(NS(C)(=O)=O)c2F)n1 [encorafenib]
Feces pool 0–96 h or 0–120 h, average of four subjects
  Component in feces, average: 5.0 % of the administered radioactive dose
humans
  Metabolism as clearance pathway, share of the recovered radioactive dose: ~ 88%
In vivo
  CLr as share of the glomerular filtration rate (7.5 L/h): 7%
male, human, urine and plasma, oral, 100 mg, amount in urine divided by mean plasma AUCinf, read-out: Renal clearance (CLr), estimated mean (converted)
  CL renal: 8.33 mL/min
Urine pool 0–48 h, average of four subjects
  Component in urine, average: 1.8 % of the administered radioactive dose
